Experiments:
[1] = xn = mol fraction of the nth substance listed; details: 101 kPa, Liquid; for mass density: Vibrating tube method; for speed of sound: Frequency=3 MHz, Sing-around technique in a fixed-path interferometer
[2] = refractive index (Na D-line) (dimensionless); xn = mol fraction of the nth substance listed; details: 101 kPa, Liquid, Standard Abbe refractometry

CCCCC(=O)O [pentanoic acid] + CCCC(=O)O
Details	mass density, [1] [kg/m3]	refractive index, [2]	speed of sound, [1] [m/s]
293.15 K, x2 = 0	–	1.4084	–
293.15 K, x2 = 0.0472	–	1.40813	–
293.15 K, x2 = 0.0938	–	1.4077	–
293.15 K, x2 = 0.1944	–	1.40676	–
293.15 K, x2 = 0.2928	–	1.40581	–
293.15 K, x2 = 0.3946	–	1.40481	–
293.15 K, x2 = 0.4922	–	1.40383	–
293.15 K, x2 = 0.5938	–	1.40278	–
293.15 K, x2 = 0.6929	–	1.40174	–
293.15 K, x2 = 0.7973	–	1.4006	–
293.15 K, x2 = 0.895	–	1.39949	–
298.15 K, x2 = 0	–	1.40641	–
298.15 K, x2 = 0.0472	–	1.40607	–
298.15 K, x2 = 0.0938	–	1.40563	–
298.15 K, x2 = 0.1944	–	1.40469	–
298.15 K, x2 = 0.2928	–	1.40374	–
298.15 K, x2 = 0.3946	–	1.40274	–
298.15 K, x2 = 0.4922	–	1.40175	–
298.15 K, x2 = 0.5938	–	1.4007	–
298.15 K, x2 = 0.6929	–	1.39965	–
298.15 K, x2 = 0.7973	–	1.3985	–
298.15 K, x2 = 0.895	–	1.39744	–
303.15 K, x2 = 0	–	1.40438	–
303.15 K, x2 = 0.0472	–	1.40399	–
303.15 K, x2 = 0.0938	–	1.40355	–
303.15 K, x2 = 0.1944	–	1.4026	–
303.15 K, x2 = 0.2928	–	1.40164	–
303.15 K, x2 = 0.3946	–	1.40063	–
303.15 K, x2 = 0.4922	–	1.39964	–
303.15 K, x2 = 0.5938	–	1.39857	–
303.15 K, x2 = 0.6929	–	1.39751	–
303.15 K, x2 = 0.7973	–	1.39639	–
303.15 K, x2 = 0.895	–	1.39533	–
308.15 K, x2 = 0	–	1.40234	–
308.15 K, x2 = 0.0472	–	1.4019	–
308.15 K, x2 = 0.0938	–	1.40146	–
308.15 K, x2 = 0.1944	–	1.40051	–
308.15 K, x2 = 0.2928	–	1.39955	–
308.15 K, x2 = 0.3946	931.68	1.39853	–
308.15 K, x2 = 0.4922	933.3	1.39753	–
308.15 K, x2 = 0.5938	935.08	1.39646	–
308.15 K, x2 = 0.6929	936.87	1.39541	–
308.15 K, x2 = 0.7973	938.85	1.39431	–
308.15 K, x2 = 0.895	940.76	1.39326	–
313.15 K, x2 = 0	921.16	1.4003	1162.1
313.15 K, x2 = 0.0472	921.78	1.39983	1160.4
313.15 K, x2 = 0.0938	922.44	1.39937	1158.6
313.15 K, x2 = 0.1944	923.89	1.39841	1154.8
313.15 K, x2 = 0.2928	925.37	1.39745	1151
313.15 K, x2 = 0.3946	926.97	1.39642	1146.9
313.15 K, x2 = 0.4922	928.55	1.39542	1143
313.15 K, x2 = 0.5938	930.29	1.39437	1138.9
313.15 K, x2 = 0.6929	932.04	1.39332	1134.7
313.15 K, x2 = 0.7973	933.98	1.39222	1130.2
313.15 K, x2 = 0.895	935.84	1.39118	1126
